Measured values reported in patent US20080039410A1, “Inositol 1,4,5-Trisphosphate Receptor Mutants and Uses Thereof” (priority 2004, published 2008).
Where two headings read alike, the source gives them in different places.

Test system: S2− InsP3R-1
Assay: CCh concentration-response of Ca2+ release in Dt-40 3ko cells expressing m3R and S2− InsP3R-1 constructs
Format: cell-based, rat
Conditions: for maximum peak Δ response to CCh: Fura-2 340/380 ratio; for fold change from WT (CCh EC50): S2 − InsP3R-1 constructs, Table 2; for EC50: fit of normalized initial peak, read-out: EC50 for CCh-induced Ca^2+ release
Excerpt: The rat S2^+ InsP3R-1 in the expression plasmid pIRES-GFP was digested with the restriction endonuclease SalI. The overhang created by digestion was blunted by using T4 polymerase. An EcoRI linker was then ligated onto the blunted ends of the construct. The entire receptor DNA was excised from the plasmid using EcoRI and ligated into the plasmid MXT-1. The region containing the S2^− splice variant and potential PKA phosphorylation sites was excised from its backbone in pCDNA 3.1+ by RsrII and KasI and ligated into the InsP3R construct in MXT-1. The potential PKA phosphorylation sites Ser-1589 and Ser-1755 were mutated, individually in both splice variants and together in the S2^− splice variant, to alanines or glutamates by using sequential PCR mutagenesis. The outside primers used for the mutagenesis reaction flanked the restriction sites RsrII and KasI. Following mutation, the resulting fragments were cut with RsrII and KasI and inserted into the InsP3R-1 backbone at the corresponding sites. The mutations were confirmed by Big Dye fluorescent sequencing. Mutated receptor DNAs were excised from MXT-1 by using EcoRI and ligated into the mammalian expression vector pGW (provided by Dr. David Yue, Johns Hopkins University). Orientation was confirmed by using restriction enzyme digestion. Mutants were named based on the splice variant, either S2+ or S2− followed by the amino acid present at position 1589 and 1755. Thus, a mutation in S2^+ InsP3R-1 S1755E is designated, “S2+SE,” and in InsP3R-1 […] S1755A is designated “S2^−SA”. Similarly, an S2− InsP3R-1 with mutations in both S1589E and S1755E is designated “S2−EE”. The numbering of residues is based on the full-length rat InsP3R-1.
Dt-40 cells lacking all three InSP3 receptor subtypes were transfected by using electroporation at 350 V and 950 microfarads (4-mm gap cuvette). 2×10^7 cells were co-transfected with 25 μg of the InsP3R-1 cDNA, 25 μof the muscarinic type 3 (m3R) receptor DNA, and 4 μg of the red fluorescent protein plasmid pHcRed1-N1 (Clontech). Cells were incubated with DNA in 500 μl of Opti-MEM media (Invitrogen) on ice for 10 min. The cell/DNA mixture was electroporated, incubated on ice for 30 min, increased to 5 ml with Opti-MEM, and placed in a 5% CO2 incubator at 39° C. for 5 h. The cells were then centrifuged and resuspended in 12 ml of complete RPMI media (Invitrogen). Transfection efficiency was typically ˜20%. Experiments were performed within 32 h of transfection.
Transfected Dt-40 3ko cells were washed once in a HEPES-buffered physiological saline solution (HEPES-PSS) containing (in mM) 5.5 glucose, 137 NaCl, 0.56 MgCl2, 4.7 KCl, 1 Na2HPO4, 10 HEPES (pH 7.4), 1.2 CaCl2, and 1% w/v bovine serum albumin. Cells were then resuspended in bovine serum albumin HEPES-PSS with 1 μM Fura-2 (AM), placed on a 15-mm glass coverslip in a low volume perfusion chamber, and allowed to adhere for 30 min at room temperature. Cells were perfused continuously for 10 min with HEPES-PSS before experimentation to allow complete Fura-2 de-esterification. A field of cells for each experiment was chosen that contained a wide range of transfection efficiency based upon the intensity of red fluorescence emitted when excited at 560 nm. Individual cells that had emission gray levels between 1500 and 2500 were subsequently chosen to standardize expression levels. [Ca^2+]i imaging was performed essentially as described previously by using an inverted epifluorescence Nikon microscope with a 40× oil immersion objective lens (numerical aperture, 1.3) (100). Cells were excited alternately with light at 340 and 380±10 nm bandpass filters (Chroma, Rockingham, Vt.) using a monochrometer (TILL Photonics, Pleasanton, Calif.). Fluorescence images were captured and digitized with a digital camera driven by TILL Photonics software. Images were captured every 2 s with an exposure of 2 ms and 4 by 4 binning. 340/380 ratio images were calculated online and stored immediately to a hard disk. […]

[1] = listed as S1589E/S1755E mutant InsP3R-1

| Substance | sensitivity of CCh-induced Ca^2+ release relative to other constructs | maximum peak Δ response to CCh | fold change from WT (CCh EC50) [fold] | EC50 [nM] | fold more sensitive than nonphosphorylatable S1589A/S1755A S2− InsP3R-1 (listed as S2− mutant) [fold] | fold more sensitive than wild type S2− InsP3R-1 (CCh-induced Ca^2+ release) (listed as S2− mutant) [fold] | fold more sensitive than nonphosphorylatable S1589A/S1755A S2− InsP3R-1 [1] | fold more sensitive than wild type S2− InsP3R-1 (CCh-induced Ca^2+ release) [1] | sensitivity of CCh-induced Ca^2+ release relative to other constructs [1] | maximal response in full CCh concentration-response curve | fold more sensitive than wild type S2− InsP3R-1 (CCh-induced Ca^2+ release) [fold] |
| --- | --- | --- | --- | --- | --- | --- | --- | --- | --- | --- | --- |
| S2−EE: phosphomimetic S1589E/S1755E mutant of the short splice variant | greatest | 1.13+0.1 ratio units | 7.6 | 4.3 | ~50 | 7.5 | approximately 35 fold | approximately 7.5 fold | markedly potentiated Ca^2+ release | – | – |
| G1690A: InsP3R-1 S2− variant with glycine to alanine substitution at position 1690 (nucleotide binding site mutant) | – | – | – | – | – | – | – | – | – | comparable to that seen in the wild-type receptor | – |
| S2−ES: phosphomimetic short splice variant S1589E | intermediate sensitivity | 0.54±0.1 ratio units | 2.6 | 12.4 ± 0.5 | – | – | – | – | – | – | ~3 |
| S2−WT: wild-type rat type-1 InsP3 receptor, peripheral short S2− splice variant (SEQ ID NO: 17) | – | 0.9±0.1 ratio units | 1 | 32.6 ± 7.5 | – | – | – | – | – | – | – |
| S2−SE: phosphomimetic short splice variant of S1755E | intermediate sensitivity | 0.78±0.1 ratio units | 2.4 | 13.5 ± 1 | – | – | – | – | – | – | ~3 |
